Measured values published in patent US8388944B2, “Inactivating organisms using carbon dioxide at or near its supercritical pressure and temperature conditions” (Novasterilis Inc., priority 2003, dated 2013).
Counter-ions that a name gives are not always drawn.

What was measured:
[1] = tested on: B. subtilis spore and vegetative forms; test: Inactivation of B. subtilis spore and vegetative forms, CFU counted after serial dilution and culturing; type: cell-based, Bacillus subtilis
Protocol: The reactor vessel was heated to 50° C. and equilibrated with CO2 at atmospheric pressure. The stirring and agitation mechanisms were activated and the reactor vessel pressurized to 3000 psi for 40 minutes. The CO2 pressure was then allowed to drop to 1500 psi at a rate of 300 psi/minute. Agitation was carried out for 1 minute.
The loop was sealed and pressurized to 3000 psi.
The stirring was stopped and the basket was removed from the reactor vessel.
The reactor vessel was heated to 50° C. and equilibrated with CO2 at atmospheric pressure. […] The CO2 pressure was then allowed to drop to 1500 psi at a rate of 300 psi/minute.

[2] = tested on: Escherichia coli; test: Inactivation of bacteria by supercritical carbon dioxide; type: cell-based; details: 34° C., 2973 psi to 1500 psi, three cycles over 0.5 hours
Source text: (§1) Maintaining the natural presentation environment for a given antigen generally enhances the protective qualities of a given vaccine. Ghost vaccine preparations result in empty bacterial shells that are intact except for holes produced by the lysis gene product when viewed by scanning electron microscopy (SEM). In contrast, organisms inactivated by supercritical carbon dioxide have intact cell walls (i.e., no lysis holes) and are not empty (i.e., the cytosolic contents are retained). Staphylococcus aureus and Pseudomonas aeruginosa were inactivated by at least 6-log with supercritical carbon dioxide at 40° C. and 2973 psi to 1500 psi for a total of six cycles over 4 hours. Escherichia coli was inactivated by at least 6-log with supercritical carbon dioxide at 34° C. and 2973 psi to 1500 psi for a total of three cycles over 0.5 hours.

[3] = tested on: Pseudomonas aeruginosa; test: as above; type: cell-based; details: 40° C., 2973 psi to 1500 psi, six cycles over 4 hours
Source text: as §1

[4] = tested on: Staphylococcus aureus; test: as above; type: cell-based; details: 40° C., 2973 psi to 1500 psi, six cycles over 4 hours
Source text: as §1

[5] = tested on: B. stearothermophilus spores; test: Inactivation of B. stearothermophilus spores, CFU counted after serial dilution and culturing; type: cell-based; details: for CFU/mL after treatment: start 2.3×10^6 CFU/mL
Source text: The effects of using an additive in accordance with the present invention was compared using the process described by U.S. Pat. No. 6,149,864 to Dillow et al. for inactivating B. stearothermophilus spores. […] In contrast, 6.4-log inactivation (i.e., 2.3×10^6 CFU/mL to undetectable) was achieved using the process of the present invention (i.e., 1100 psi to 3000 psi with random and directional agitation, and including TFA as the chemical additive). The chemical additive was placed on a cotton ball and inserted in the chamber prior to closure. No further chemical additive was used.
The apparatus generally depicted in FIG. 1 was employed. A sample of B. stearothermophilus spores (1 mL) of greater than 10^6 CFU/mL was placed in 16 mm diameter test tubes in a stainless steel basket. Trifluoroacetic acid (4 mL) was transferred by syringe onto the surface of a cotton ball placed in the basket and water (6 mL) was placed at bottom of vessel. The basket was then loaded into the 600 mL reactor vessel. The reactor vessel was heated to 50° C. and equilibrated with CO2 at atmospheric pressure. The stirring and agitation mechanisms were activated and the reactor vessel pressurized to […] for 40 minutes. The CO2 pressure was then allowed to drop to 1100 psi at a rate of 300 psi/minute. Agitation by means of vibration of the vessel was carried out for 1 minute.
The pressurization/stirring/agitation/depressurization process was repeated a total of three times. After the third cycle, a series of three flushing cycles to remove the additive was performed by pressurizing and partial depressurizing the reactor vessel using CO2. The stirring was stopped and the basket was removed from the reactor vessel. Any remaining CFU were counted after serial dilution and culturing of both treated and untreated controls.

[6] = tested on: Salmonella typhimurium; test: Inactivation of S. typhimurium, serial dilutions and colony counts; type: cell-based; details: Example 8: no chemical additive, water 1 vol. %, 35° C., 1500 psi constant for 15 minutes, greater than 10^9 CFU/mL
Protocol: A sample of Salmonella typhimurium (5 mL), […], of greater than 10^9 CFU/mL was placed into 16 mm test tubes in a stainless steel basket. Water was added on a cotton ball to the vessel at 1% of the total volume (1 vol. %) of the vessel. No chemical additive was placed in the vessel. The reactor vessel was heated to 35° C. and equilibrated with CO2 at atmospheric pressure. The stirring and agitation mechanisms were activated and vessel pressurized to 1500 psi and held constant for 15 minutes. The vessel was then depressurized and the contents removed for analysis. Quantitative analysis of any remaining Salmonella typhimurium in treated sample vs. untreated control was enumerated though serial dilutions and colony counts.

[7] = tested on: B. subtilis spore forms; details: process disclosed in the Dillow '864 patent, other investigators [27]; cited from earlier work

CC(=O)O [Acetic acid, acetic acid]
kill of B. subtilis present ([1]; Example 3B: as Example 3A, samples of less than 10^6 CFU/ml): total kill | log reduction in CFU extrapolated for greater than 10^6 CFU/ml ([1]; Example 3B: extrapolated from total kill of samples below 10^6 CFU/ml): 6 log | log reduction ([1]; Example 7: acetic acid 6 mL then 4 mL per cycle in CO2, 50° C., 3000 psi 40 minutes to 1500 psi, three cycles): at least 6 log

O=C=O [supercritical carbon dioxide, carbon dioxide]
log inactivation [2]: at least 6 log | log inactivation [3]: at least 6 log | log inactivation [4]: at least 6 log | log inactivation ([5]; no chemical additive, Dillow '864 conditions, three cycles of 60° C. for two hours, 1500 psi to 3000 psi, random agitation): 1.0 log | CFU/mL after treatment ([5]; no chemical additive, three cycles of 60° C. for two hours, 1500 psi to 3000 psi): 2.1×10^5 CFU/mL | log reduction [6]: 9 log | log reduction in B. subtilis spore forms [7]: 3.5 log

O=C(O)C(F)(F)F [TFA, trifluoroacetic acid]
log inactivation ([5]; TFA as chemical additive in supercritical CO2, 1100 psi to 3000 psi, random and directional agitation): 6.4 log | CFU/mL after treatment ([5]; TFA as chemical additive in supercritical CO2, 1100 psi to 3000 psi): undetectable
